Measured values published in US11535595B2, “Isoquinoline sulfonyl chloride acid addition salts and method of manufacture thereof” (D. WESTERN THERAPEUTICS INSTITUTE, INC., priority 2018, dated 2022).

melting point | Compound
102 °C (dec.) | Cl.O=S(=O)(Cl)c1ccc2cnccc2c1
80 °C | c1ccc(CSc2ccc3cnccc3c2)cc1 [compound (4), 6-(benzylthio)isoquinoline]
